Experiments:
[1] = test system: Mouse; assay: concentration in plasma after dosing; details: 3 h; dosed: 2-Hydroxy-4-methoxybenzophenone; 50 mg/kg; iv; Female; B6C3F1
[2] = test system: Rat; assay: concentration in plasma after dosing; details: dosed: 2-Hydroxy-4-methoxybenzophenone, 250 mg/kg, oral, Female, F344
[3] = test system: Rat; assay: concentration in plasma after dosing; details: 0.25 h; dosed: 2-Hydroxy-4-methoxybenzophenone; 500 mg/kg; oral; Female; F344
[4] = test system: Mouse; assay: concentration in plasma after dosing; details: 2 h; dosed: 2-Hydroxy-4-methoxybenzophenone; 250 mg/kg; oral; Male; B6C3F1
[5] = test system: Rat; assay: concentration in plasma after dosing; details: dosed: 2-Hydroxy-4-methoxybenzophenone, 250 mg/kg, oral, Female, F344; remark: listed apart in the source
[6] = test system: Rat; assay: concentration in plasma after dosing; details: 5 min; dosed: Nitrite; 80 mg/kg; oral; Female; F344
[7] = test system: Rat; assay: concentration in plasma after dosing; details: 10 min; dosed: Nitrite; 40 mg/kg; oral; Female; F344
[8] = test system: Rat; assay: concentration in plasma after dosing; details: 2 min; dosed: Nitrite; 80 mg/kg; oral; Female; F344
[9] = test system: Rat; assay: concentration in plasma after dosing; details: dosed: Nitrite, 80 mg/kg, oral, Female, F344
[10] = test system: Rat; assay: concentration in brain after dosing; details: 6 h; dosed: Perfluorooctanoic acid; 80 mg/kg; oral; Female; Harlan Sprague Dawley
[11] = test system: Rat; assay: concentration in liver after dosing; details: 3 h; dosed: Fluorotelomer alcohol 8+2; 24 mg/kg; oral; Male; Harlan Sprague Dawley
[12] = test system: Rat; assay: concentration in plasma after dosing; details: dosed: 678-39-7, 40 mg/kg, iv, Male, F344
[13] = test system: Rat; assay: concentration in liver after dosing; details: 3 h; dosed: Fluorotelomer alcohol 8+2; 80 mg/kg; oral; Female; Harlan Sprague Dawley
[14] = test system: Rat; assay: concentration in kidney after dosing; details: 12 h; dosed: Fluorotelomer alcohol 8+2; 80 mg/kg; oral; Female; Harlan Sprague Dawley
[15] = test system: Rat; assay: concentration in liver after dosing; details: 3 h; dosed: Perfluorooctanoic acid; 80 mg/kg; oral; Female; Harlan Sprague Dawley
[16] = test system: Rat; assay: concentration in kidney after dosing; details: 24 h; dosed: Perfluorooctanoic acid; 80 mg/kg; oral; Female; Harlan Sprague Dawley
[17] = test system: Rat; assay: concentration in kidney after dosing; details: 12 h; dosed: Fluorotelomer alcohol 8+2; 80 mg/kg; oral; Female; Harlan Sprague Dawley; remark: listed apart in the source
[18] = test system: Rat; assay: concentration in liver after dosing; details: 6 h; dosed: Perfluorooctanoic acid; 12 mg/kg; oral; Male; Harlan Sprague Dawley
[19] = test system: Rat; assay: concentration in kidney after dosing; details: 6 h; dosed: Fluorotelomer alcohol 8+2; 24 mg/kg; oral; Male; Harlan Sprague Dawley
[20] = test system: Rat; assay: concentration in plasma after dosing; details: dosed: 678-39-7, 40 mg/kg, iv, Female, Harlan Sprague-Dawley
[21] = test system: Rat; assay: concentration in plasma after dosing; details: dosed: 678-39-7, 12 mg/kg, iv, Male, F344
[22] = test system: Rat; assay: concentration in plasma after dosing; details: 192 h; dosed: 678-39-7; 12 mg/kg; iv; Male; F344
[23] = test system: Rat; assay: concentration in kidney after dosing; details: 6 h; dosed: Fluorotelomer alcohol 8+2; 80 mg/kg; oral; Female; Harlan Sprague Dawley
[24] = test system: Rat; assay: concentration in plasma after dosing; details: dosed: Fluorotelomer alcohol 8+2, 12 mg/kg, oral, Male, Harlan Sprague Dawley
[25] = test system: Rat; assay: concentration in kidney after dosing; details: 1 h; dosed: Potassium Perfluorobutane Sulfonate; 20 mg/kg; oral; Female; Harlan Sprague Dawley
[26] = test system: Rat; assay: concentration in plasma after dosing; details: dosed: Potassium Perfluorobutane Sulfonate, 4 mg/kg, oral, Male, Harlan Sprague Dawley
[27] = test system: Rat; assay: concentration in plasma after dosing; details: 1 h; dosed: Potassium Perfluorobutane Sulfonate; 4 mg/kg; iv; Female; Harlan Sprague-Dawley
[28] = test system: Rat; assay: concentration in plasma after dosing; details: 0.5 h; dosed: Potassium Perfluorobutane Sulfonate; 4 mg/kg; iv; Male; F344
[29] = test system: Rat; assay: concentration in liver after dosing; details: 0.5 h; dosed: Potassium Perfluorobutane Sulfonate; 20 mg/kg; oral; Female; Harlan Sprague Dawley
[30] = test system: Rat; assay: concentration in liver after dosing; details: 12 h; dosed: Potassium Perfluorobutane Sulfonate; 20 mg/kg; oral; Male; Harlan Sprague Dawley
[31] = test system: Rat; assay: concentration in kidney after dosing; details: 0.5 h; dosed: Potassium Perfluorobutane Sulfonate; 20 mg/kg; oral; Female; Harlan Sprague Dawley
[32] = test system: Rat; assay: concentration in kidney after dosing; details: 6 h; dosed: Potassium Perfluorobutane Sulfonate; 20 mg/kg; oral; Female; Harlan Sprague Dawley
[33] = test system: Rat; assay: concentration in brain after dosing; details: 3 h; dosed: Potassium Perfluorobutane Sulfonate; 20 mg/kg; oral; Male; Harlan Sprague Dawley
[34] = test system: Rat; assay: concentration in plasma after dosing; details: dosed: Potassium Perfluorobutane Sulfonate, 4 mg/kg, iv, Male, F344
[35] = test system: Rat; assay: concentration in plasma after dosing; details: dosed: Potassium Perfluorobutane Sulfonate, 4 mg/kg, iv, Male, F344; remark: listed apart in the source
[36] = test system: Rat; assay: concentration in brain after dosing; details: 3 h; dosed: Potassium Perfluorobutane Sulfonate; 20 mg/kg; oral; Male; Harlan Sprague Dawley; remark: listed apart in the source

COc1ccc(C(=O)c2ccccc2)c(O)c1 [2-Hydroxy-4-methoxybenzophenone]
Details | concentration in plasma [ng/mL]
[1] | 134
[3] | 619
[4] | 55.1

concentration in plasma [ng/mL]
Details | 0.25 h | 3 h | 4 h | 10 min
[2] | – | 95.6 | – | 26.9
[5] | 453 | – | 19 | –

O=N[O-] [Nitrite]
Details | concentration in plasma [ng/mL]
[6] | 7300
[7] | 26600
[8] | 3900

[9]
Details | concentration in plasma [ng/mL]
1 h | 8100
2 h | 6800

O=C(O)C(F)(F)C(F)(F)C(F)(F)C(F)(F)C(F)(F)C(F)(F)C(F)(F)F [Perfluorooctanoic acid]
Details | concentration in brain [ng/g] | concentration in kidney [ng/g] | concentration in liver [ng/g] | concentration in plasma [ng/mL]
[10] | 3290 | – | – | –
[11] | – | – | 1430 | –
[13] | – | – | 2300 | –
[14] | – | 711 | – | –
[15] | – | – | 32900 | –
[16] | – | 14000 | – | –
[17] | – | 626 | – | –
[18] | – | – | 63400 | –
[19] | – | 421 | – | –
[22] | – | – | – | 307
[23] | – | 1730 | – | –

Details | concentration in plasma [ng/mL]
[12], 0.5 h | 234000
[12], 3 h | 2800
[12], 5 min | 172
[12], 12 h | 25600
[20], 1 h | 2280
[20], 24 h | 58.8
[21], 0.75 h | 332
[21], 12 h | 524
[24], 0.25 h | 27.2
[24], 6 h | 635

O=S(=O)([O-])C(F)(F)C(F)(F)C(F)(F)C(F)(F)F.[K+] [Potassium Perfluorobutane Sulfonate]
Details | concentration in brain [ng/g] | concentration in kidney [ng/g] | concentration in liver [ng/g] | concentration in plasma [ng/mL]
[25] | – | 19300 | – | –
[27] | – | – | – | 5120
[28] | – | – | – | 12500
[29] | – | – | 48000 | –
[30] | – | – | 10100 | –
[31] | – | 26700 | – | –
[32] | – | 3360 | – | –
[33] | 754 | – | – | –
[36] | 552 | – | – | –

concentration in plasma [ng/mL]
Details | 0.5 h | 3 h | 5 min | 12 h
[26] | – | 15100 | 320 | –
[34] | – | 12800 | 32200 | –
[35] | 22200 | – | – | 938
